Literature values in article PMC9516332 (Frontiers in Oncology, 2022).
Like-named read-outs stand apart in the source and are kept apart here.

What was measured:
[1] = biological target: T1, panel of 255 wild-type kinases (Homo sapiens, UniProt O15111); conditions: kinase IKKα, 1 µmol/L single concentration, cited from earlier work
T1 sequence (O15111 1-745): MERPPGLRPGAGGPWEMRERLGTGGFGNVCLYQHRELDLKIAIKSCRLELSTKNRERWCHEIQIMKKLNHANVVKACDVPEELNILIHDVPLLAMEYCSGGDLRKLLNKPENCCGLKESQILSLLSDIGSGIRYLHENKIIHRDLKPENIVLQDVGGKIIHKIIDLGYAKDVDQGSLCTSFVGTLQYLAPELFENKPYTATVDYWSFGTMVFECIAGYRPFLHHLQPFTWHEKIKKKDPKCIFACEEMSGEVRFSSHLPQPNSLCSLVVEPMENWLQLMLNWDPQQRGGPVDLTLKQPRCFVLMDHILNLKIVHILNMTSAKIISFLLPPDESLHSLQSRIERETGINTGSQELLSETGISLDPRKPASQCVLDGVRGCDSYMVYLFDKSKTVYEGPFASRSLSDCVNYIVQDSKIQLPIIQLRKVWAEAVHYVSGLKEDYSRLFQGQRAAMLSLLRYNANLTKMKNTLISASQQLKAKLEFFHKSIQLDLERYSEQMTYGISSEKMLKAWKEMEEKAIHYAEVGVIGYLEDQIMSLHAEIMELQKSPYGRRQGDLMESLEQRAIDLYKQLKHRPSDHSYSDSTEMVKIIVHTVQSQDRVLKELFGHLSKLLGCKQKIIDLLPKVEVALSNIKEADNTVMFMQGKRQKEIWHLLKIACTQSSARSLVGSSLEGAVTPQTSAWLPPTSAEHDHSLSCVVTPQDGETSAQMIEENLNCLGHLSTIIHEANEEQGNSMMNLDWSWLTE

[2] = biological target: panel of 255 wild-type kinases (Homo sapiens, UniProt P04629); conditions: kinase TRKA, 1 µmol/L single concentration, cited from earlier work
[3] = biological target: panel of 255 wild-type kinases (Homo sapiens, UniProt P06493); conditions: CDC2/CycB1 kinase assay, 1 µmol/L single concentration, cited from earlier work
[4] = biological target: panel of 255 wild-type kinases (Homo sapiens, UniProt P10721); conditions: kinase KIT, 1 µmol/L single concentration, cited from earlier work
[5] = biological target: panel of 255 wild-type kinases (Homo sapiens, UniProt P19525); conditions: kinase PKR, 1 µmol/L single concentration, cited from earlier work
[6] = biological target: panel of 255 wild-type kinases (Homo sapiens, UniProt P22694); conditions: kinase PKACβ, 1 µmol/L single concentration, cited from earlier work
[7] = biological target: panel of 255 wild-type kinases (Homo sapiens, UniProt P49674); conditions: kinase CK1ε, 1 µmol/L single concentration, cited from earlier work
[8] = biological target: panel of 255 wild-type kinases (Homo sapiens, UniProt Q13557); conditions: CaMK2δ kinase assay, 1 µmol/L single concentration, cited from earlier work
[9] = biological target: T2, panel of 255 wild-type kinases (Homo sapiens, UniProt Q13976); conditions: kinase PGK, 1 µmol/L single concentration, cited from earlier work
T2 sequence (Q13976 1-671): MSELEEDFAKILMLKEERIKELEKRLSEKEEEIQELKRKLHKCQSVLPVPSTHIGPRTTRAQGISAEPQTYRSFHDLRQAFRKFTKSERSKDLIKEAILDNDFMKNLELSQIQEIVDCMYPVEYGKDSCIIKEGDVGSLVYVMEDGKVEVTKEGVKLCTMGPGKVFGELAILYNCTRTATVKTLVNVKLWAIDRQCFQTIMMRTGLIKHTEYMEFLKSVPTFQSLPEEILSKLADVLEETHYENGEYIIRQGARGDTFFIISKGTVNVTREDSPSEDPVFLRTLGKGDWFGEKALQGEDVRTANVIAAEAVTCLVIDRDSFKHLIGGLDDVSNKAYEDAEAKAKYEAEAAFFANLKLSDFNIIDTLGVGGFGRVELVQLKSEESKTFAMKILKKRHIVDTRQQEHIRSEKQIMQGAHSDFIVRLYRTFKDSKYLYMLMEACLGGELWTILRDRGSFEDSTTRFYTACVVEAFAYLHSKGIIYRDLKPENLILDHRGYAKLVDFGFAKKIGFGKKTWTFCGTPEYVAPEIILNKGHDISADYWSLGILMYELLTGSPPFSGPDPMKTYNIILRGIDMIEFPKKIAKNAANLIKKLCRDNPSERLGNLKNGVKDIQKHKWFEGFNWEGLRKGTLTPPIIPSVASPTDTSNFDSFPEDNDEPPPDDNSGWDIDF

[10] = biological target: panel of 255 wild-type kinases (Homo sapiens, UniProt P07332); conditions: kinase FES, 1 µmol/L single concentration, cited from earlier work
[11] = biological target: panel of 255 wild-type kinases (Homo sapiens, UniProt Q06187); conditions: BTK kinase assay, 1 µmol/L single concentration, cited from earlier work
[12] = biological target: panel of 255 wild-type kinases (Homo sapiens, UniProt Q96GD4); conditions: AurB kinase assay, 1 µmol/L single concentration, cited from earlier work
[13] = biological target: panel of 255 wild-type kinases (Homo sapiens, UniProt Q9H1R3); conditions: kinase skMLCK, 1 µmol/L single concentration, cited from earlier work
[14] = ref DOI: 10.1371/journal.pone.0092146
[15] = ref DOI: 10.1158/1535-7163.MCT-18-0877

Row | Structure (SMILES) | %-inhibition at 1 µmol/L, KIT [4, 14] | %-inhibition at 1 µmol/L, CK1ε [7, 14] | %-inhibition CaMK2δ [8, 14] | %-inhibition at 1 µmol/L, IKKα [1, 15] | %-inhibition at 1 µmol/L, TRKA [2, 15] | %-inhibition CDC2/CycB1 [3, 15] | %-inhibition at 1 µmol/L, FES [10, 15] | %-inhibition at 1 µmol/L, PKR [5, 15] | %-inhibition at 1 µmol/L, PKACβ [6, 15] | %-inhibition at 1 µmol/L, PGK [9, 15] | %-inhibition AurB [12, 15] | %-inhibition at 1 µmol/L, skMLCK [13, 15] | other results
1 | C[C@@H](Oc1cc(-c2cnn(C3CCNCC3)c2)cnc1N)c1c(Cl)ccc(F)c1Cl [crizotinib] | 16% | 4% | 4% |  |  |  |  |  |  |  |  |  | %-inhibition at 1 µmol/L, IKKα [1, 14]: -1.78%; %-inhibition at 1 µmol/L, TRKA [2, 14]: 103%; %-inhibition CDC2/CycB1 [3, 14]: 19%; %-inhibition at 1 µmol/L, PKR [5, 14]: 6%; %-inhibition at 1 µmol/L, PKACβ [6, 14]: -2.3%; %-inhibition at 1 µmol/L, PGK [9, 14]: -2.6%
2 | CC(C)(C)c1nc(-c2cccc(NS(=O)(=O)c3c(F)cccc3F)c2F)c(-c2ccnc(N)n2)s1 [dabrafenib] | 59% | 10% | -0.23% |  |  |  |  |  |  |  |  |  | %-inhibition at 1 µmol/L, FES [10, 14]: 2.29%; %-inhibition BTK [11, 14]: 60%; %-inhibition AurB [12, 14]: 39%; %-inhibition at 1 µmol/L, skMLCK [13, 14]: 0.52%
3 | C=CC(=O)N1CCC[C@@H](n2nc(-c3ccc(Oc4ccccc4)cc3)c3c(N)ncnc32)C1 [ibrutinib] |  |  |  | 4.34% | 59% | -1% | 0.681% | 5.63% | -9% | 1.89% | -1.1% | -17% | %-inhibition at 1 µmol/L, KIT [4, 15]: -4.53%; %-inhibition at 1 µmol/L, CK1ε [7, 15]: 50%; %-inhibition CaMK2δ [8, 15]: -0.826%
4 | CO[C@@H]1[C@H](N(C)C(=O)c2ccccc2)C[C@H]2O[C@]1(C)n1c3ccccc3c3c4c(c5c6ccccc6n2c5c31)C(=O)NC4 [midostaurin] |  |  |  | -0.107% | 100% | 22% | 90% | 32% | 91% | 98% | 86% | 0.93% | %-inhibition BTK [11, 15]: 59%
